US20250275559A1, “SATURATED FATTY ACIDS AND THEIR USE TO MODIFY TASTE” (Firmenich Incorporated, priority 2022, published 2025)

Experiments:
Assay type in all cases: cell-based
T2R54 (TAS2R39) = biological target: T1, T2R54 (TAS2R39) (Homo sapiens, UniProt P59534); assay: FLIPR calcium assay, block of bitter agonist response in cells transfected with T2R54; conditions: saturated fatty acid concentration of 200 μM
T1 construct: expressed in transfected cells; host or cells: cells expressing a promiscuous G protein (e.g., G16g44)
T1 sequence (P59534 1-338): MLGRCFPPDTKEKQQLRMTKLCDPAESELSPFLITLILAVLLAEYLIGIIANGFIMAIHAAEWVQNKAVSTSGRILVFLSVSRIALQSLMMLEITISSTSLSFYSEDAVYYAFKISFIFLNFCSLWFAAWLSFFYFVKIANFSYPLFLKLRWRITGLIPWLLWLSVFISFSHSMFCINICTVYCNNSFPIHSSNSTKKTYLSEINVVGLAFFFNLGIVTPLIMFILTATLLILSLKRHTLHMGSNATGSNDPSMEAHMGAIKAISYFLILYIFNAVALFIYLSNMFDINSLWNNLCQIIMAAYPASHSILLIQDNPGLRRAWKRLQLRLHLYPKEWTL
Experimental: (§1) Cells expressing a promiscuous […] (e.g., G16g44) were transfected with vectors encoding 5 functional bitter receptor cDNAs, with one receptor per transfection. The cells were transfected directly in 384-well format high-density plates and incubated for 28 hours. Later, cells were loaded with the Ca-specific dye Fluo4-AM. After an incubation of 60 minutes, excess dye is washed off, and cells are stimulated with various saturated fatty acids while simultaneously recording changes in intracellular fluorescence using a FLIPR instrument.
(§2) The above protocol was carried out using 13 different saturated fatty acids. […] Table 2 indicates the thirteen (13) compounds tested by their compound number from Table 1 above. The 6 bitter taste receptors are the human bitter taste receptors, that we named T2R01 (TAS2R01), T2R08 (TAS2R08), T2R10 (TAS2R10), T2R14 (TAS2R14), T2R54 (TAS2R39), and T2R75 (TAS2R46). The corresponding IUPHAR nomenclature for each receptor is given in parenthesis. In Table 2, these receptors are identified by the last two digits. For example, T2R01 is indicated as 01. Table 2 reports the percentage block of cellular response over baseline at a saturated fatty acid concentration of 200 μM.

T2R75 (TAS2R46) = biological target: T2, T2R75 (TAS2R46) (Homo sapiens, UniProt P59540); assay: FLIPR calcium assay, block of bitter agonist response in cells transfected with T2R75; conditions: saturated fatty acid concentration of 200 μM
T2 construct: expressed in transfected cells; host or cells: cells expressing a promiscuous G protein (e.g., G16g44)
T2 sequence (P59540 1-309): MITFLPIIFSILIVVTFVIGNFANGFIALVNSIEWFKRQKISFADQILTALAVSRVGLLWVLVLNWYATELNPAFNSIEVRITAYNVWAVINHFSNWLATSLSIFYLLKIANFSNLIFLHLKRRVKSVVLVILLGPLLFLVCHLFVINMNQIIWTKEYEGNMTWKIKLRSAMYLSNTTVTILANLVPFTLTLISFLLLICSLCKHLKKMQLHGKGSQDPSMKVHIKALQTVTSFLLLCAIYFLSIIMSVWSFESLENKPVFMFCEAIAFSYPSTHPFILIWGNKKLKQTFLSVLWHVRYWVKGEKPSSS
Experimental: as §1, §2

T2R01 (TAS2R01) = biological target: T3, T2R01 (TAS2R01) (Homo sapiens, UniProt Q9NYW7); assay: FLIPR calcium assay, block of bitter agonist response in cells transfected with T2R01; conditions: saturated fatty acid concentration of 200 μM, read-out: percentage block of cellular response over baseline, 01
T3 construct: expressed in transfected cells; host or cells: cells expressing a promiscuous G protein (e.g., G16g44)
T3 sequence (Q9NYW7 1-299): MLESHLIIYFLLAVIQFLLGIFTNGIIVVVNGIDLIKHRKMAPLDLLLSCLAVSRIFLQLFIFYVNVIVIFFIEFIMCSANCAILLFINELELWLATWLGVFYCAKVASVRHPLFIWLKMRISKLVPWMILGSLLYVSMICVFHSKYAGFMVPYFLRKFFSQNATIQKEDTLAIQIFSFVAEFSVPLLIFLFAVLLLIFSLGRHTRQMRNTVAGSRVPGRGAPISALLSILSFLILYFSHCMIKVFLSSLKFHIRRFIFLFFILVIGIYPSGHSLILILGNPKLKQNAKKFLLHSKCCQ
Experimental: as §1, §2

T2R08 (TAS2R08) = biological target: T4, T2R08 (TAS2R08) (Homo sapiens, UniProt Q9NYW2); assay: FLIPR calcium assay, block of bitter agonist response in cells transfected with T2R08; conditions: saturated fatty acid concentration of 200 μM, read-out: percentage block of cellular response over baseline, 08
T4 construct: expressed in transfected cells; host or cells: cells expressing a promiscuous G protein (e.g., G16g44)
T4 sequence (Q9NYW2 1-309): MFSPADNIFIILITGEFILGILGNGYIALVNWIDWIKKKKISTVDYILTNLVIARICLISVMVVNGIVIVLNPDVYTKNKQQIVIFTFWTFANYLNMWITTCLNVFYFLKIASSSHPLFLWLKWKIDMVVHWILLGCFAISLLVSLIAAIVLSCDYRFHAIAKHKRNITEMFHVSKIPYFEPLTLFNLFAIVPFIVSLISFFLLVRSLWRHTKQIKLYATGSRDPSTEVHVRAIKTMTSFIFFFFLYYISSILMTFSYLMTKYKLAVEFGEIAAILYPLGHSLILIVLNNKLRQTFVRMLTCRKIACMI
Experimental: as §1, with “instrument. Bitter agonist and responding receptors were identified.” for “instrument.”
as §2, with “acids. A particular T2R receptor was identified as being antagonized by a particular saturated fatty acid if it triggered a >25% block of agonist's cellular response at 200 µM concentration of saturated fatty acid.” for “acids.”

T2R10 (TAS2R10) = biological target: T5, T2R10 (TAS2R10) (Homo sapiens, UniProt Q9NYW0); assay: FLIPR calcium assay, block of bitter agonist response in cells transfected with T2R10; conditions: saturated fatty acid concentration of 200 μM, read-out: percentage block of cellular response over baseline, 10
T5 construct: expressed in transfected cells; host or cells: cells expressing a promiscuous G protein (e.g., G16g44)
T5 sequence (Q9NYW0 1-307): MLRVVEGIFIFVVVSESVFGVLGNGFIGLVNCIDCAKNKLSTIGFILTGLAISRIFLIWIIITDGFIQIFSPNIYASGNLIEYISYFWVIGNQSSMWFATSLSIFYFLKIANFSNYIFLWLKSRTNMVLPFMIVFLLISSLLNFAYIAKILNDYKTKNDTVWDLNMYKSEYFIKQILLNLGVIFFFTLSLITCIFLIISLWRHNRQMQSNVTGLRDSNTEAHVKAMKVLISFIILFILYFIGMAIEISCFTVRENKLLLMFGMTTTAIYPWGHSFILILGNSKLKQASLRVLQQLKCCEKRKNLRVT
Experimental: as §1, §2

T2R14 (TAS2R14) = biological target: T6, T2R14 (TAS2R14) (Homo sapiens, UniProt Q9NYV8); assay: FLIPR calcium assay, block of bitter agonist response in cells transfected with T2R14; conditions: saturated fatty acid concentration of 200 μM
T6 construct: expressed in transfected cells; host or cells: cells expressing a promiscuous G protein (e.g., G16g44)
T6 sequence (Q9NYV8 1-317): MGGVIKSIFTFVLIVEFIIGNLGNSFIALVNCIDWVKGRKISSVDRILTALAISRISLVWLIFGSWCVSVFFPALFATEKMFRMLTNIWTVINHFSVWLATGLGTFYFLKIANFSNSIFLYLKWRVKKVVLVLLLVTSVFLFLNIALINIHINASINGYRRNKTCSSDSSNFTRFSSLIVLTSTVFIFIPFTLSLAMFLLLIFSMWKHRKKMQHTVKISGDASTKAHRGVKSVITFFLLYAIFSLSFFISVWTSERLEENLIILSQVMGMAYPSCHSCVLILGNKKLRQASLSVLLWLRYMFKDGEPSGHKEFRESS
Experimental: as §1, §2

| Compound | percentage block of cellular response over baseline, 54 (T2R54 (TAS2R39)) [%] | percentage block of cellular response over baseline, 75 (T2R75 (TAS2R46)) [%] | inhibition at 200 µM (T2R01 (TAS2R01)) [%] | inhibition at 200 µM (T2R08 (TAS2R08)) [%] | inhibition at 200 µM (T2R10 (TAS2R10)) [%] | percentage block of cellular response over baseline, 14 (T2R14 (TAS2R14)) [%] |
| --- | --- | --- | --- | --- | --- | --- |
| CCCCCCCC(=O)O [Compound 102, Octanoic acid (Caprylic acid)] | 90 | 30 | > 30 | – | 40 | >25 |
| CCCCCC(C)C(=O)O (stereo not drawn) [Compound 117, 2-Methylheptanoic acid] | 80 | – | – | 30 | 30 | – |
| CCCCC(C)C(=O)O (stereo not drawn) [Compound 114, 2-Methylhexanoic acid] | 50 | – | – | – | – | – |
| CCCCCCCCCC(=O)O [Compound 104, Decanoic acid (Capric acid)] | >75 | >50 | > 75 | > 65 | > 95 | >55 |
| CCCCCCC(=O)O [Compound 101, Heptanoic acid (Enanthic acid)] | 65 | – | – | 25 | – | – |
| CCCCCC(C)CCC(=O)O (stereo not drawn) [Compound 121, 4-Methylnonanoic acid] | – | – | > 50 | > 55 | > 85 | >40 |
| CCCCCCCCCCCCC(=O)O [Compound 107, Tridecanoic acid] | – | – | – | – | – | >25 |
| CCCCC(C)CCC(=O)O (stereo not drawn) [Compound 119, 4-Methyloctanoic acid] | – | – | 40 | 45 | > 60 | – |
| CCCCCCCCC(=O)O [Compound 103, Nonanoic acid (Pelargonic acid)] | – | – | > 50 | > 50 | > 70 | >35 |

The remaining lines, values ahead:

| percentage block of cellular response over baseline, 54 (T2R54 (TAS2R39)) [%] | percentage block of cellular response over baseline, 75 (T2R75 (TAS2R46)) [%] | inhibition at 200 µM (T2R01 (TAS2R01)) [%] | inhibition at 200 µM (T2R08 (TAS2R08)) [%] | inhibition at 200 µM (T2R10 (TAS2R10)) [%] | percentage block of cellular response over baseline, 14 (T2R14 (TAS2R14)) [%] | Compound |
| --- | --- | --- | --- | --- | --- | --- |
| 95 | 25 | > 30 | > 25 | > 50 | – | CCCCC(CC)CCC(=O)O (stereo not drawn) [Compound 120, 4-Ethyloctanoic acid] |
| – | – | > 75 | – | > 95 | >85 | CCCCCCCCCCC(=O)O [Compound 105, Undecanoic acid] |
| 50 | – | – | – | – | – | CCCCC(CC)C(=O)O (stereo not drawn) [Compound 115, 2-Ethylhexanoic acid] |
| – | – | > 35 | 40 | > 85 | 65 | CCCCCCCCCCCC(=O)O [Compound 106, Dodecanoic acid (Lauric acid)] |
